Patent US20220402862A1 (Intellia Therapeutics, Inc., priority 2019, published 2022)

Experiments:
[1] = RNA encapsulation efficiency of LNPs (Ribogreen fluorescence assay); assay type: physicochemical; details: LNP
Description: A fluorescence-based assay (Ribogreen®, ThermoFisher Scientific) is used to determine total RNA concentration and free RNA. Encapsulation efficiency is calculated as (Total RNA-Free RNA)/Total RNA. LNP samples are diluted appropriately with 1× TE buffer containing 0.2% Triton-X 100 to determine total RNA or 1× TE buffer to determine free RNA. Standard curves are prepared by utilizing the starting RNA solution used to make the compositions and diluted in 1× TE buffer +/− 0.2% Triton-X 100. Diluted RiboGreen® dye (according to the manufacturer's instructions) is then added to each of the standards and samples and allowed to incubate for approximately 10 minutes at room temperature, in the absence of light. A SpectraMax M5 Microplate Reader (Molecular Devices) is used to read the samples with excitation, auto cutoff and emission wavelengths set to 488 nm, 515 nm, and 525 nm respectively. Total RNA and free RNA are determined from the appropriate standard curves.
Encapsulation efficiency is calculated as (Total RNA-Free RNA)/Total RNA. The same procedure may be used for determining the encapsulation efficiency of a DNA-based cargo component. In a fluorescence-based assay, for single-strand DNA Oligreen Dye may be used, and for double-strand DNA, Picogreen Dye. Alternatively, the total RNA concentration can be determined by a reverse-phase ion-pairing (RP-IP) HPLC method. Triton X-100 is used to disrupt the LNPs, releasing the RNA. The RNA is then separated from the lipid components chromatographically by RP-IP HPLC and quantified against a standard curve using UV absorbance at 260 nm.

[2] = Dynamic light scattering of LNPs: Z-average diameter, number average diameter, PDI; assay type: physicochemical; details: LNP
Description: Dynamic Light Scattering (“DLS”) is used to characterize the polydispersity index (“PDI”) and size of the LNPs of the present disclosure. DLS measures the scattering of light that results from subjecting a sample to a light source. PDI, as determined from DLS measurements, represents the distribution of particle size (around the mean particle size) in a population, with a perfectly uniform population having a PDI of zero.
LNP compositions are analyzed for average particle size, polydispersity index (PDI), total RNA content, encapsulation efficiency of RNA, and zeta potential. LNP compositions may be further characterized by lipid analysis, AF4-MALS, NTA, and/or cryo-EM. Average particle size and polydispersity are measured by dynamic light scattering (DLS) using a Malvern Zetasizer DLS instrument or Wyatt NanoStar. LNP samples were diluted with PBS buffer prior to being measured by DLS. Z-average diameter which is an intensity-based measurement of average particle size is reported along with number average diameter and PDI. A Malvern Zetasizer or Wyatt NanoStar instrument is also used to measure the zeta potential of the LNP. Samples are diluted 1:17 (50 μL into 800 μL) in 0.1× PBS, pH 7.4 prior to measurement.

Transthyretin (TTR) = assay: Serum TTR ELISA in mice after LNP dosing; assay type: in vivo, CD-1 female mice; details: guide G282 experiments; for Serum TTR % TSS: mouse serum TTR relative to TSS control; for Serum TTR: mouse serum, ELISA
Description: CD-1 female mice ranging from 6-10 weeks of age were used in each study. Animals were weighed and grouped according to body weight for preparing dosing solutions based on group average weight. LNPs were dosed via the lateral tail vein in a volume of 0.2 mL per animal (approximately 10 mL per kilogram body weight). The animals were periodically observed for adverse effects for at least 24 hours post dose. For studies measuring in vivo editing in liver, CD-1 female mice were dosed at 0.1 mg/kg unless otherwise noted. Animals were euthanized at 6 or 7 days by ex sanguination via cardiac puncture under isoflurane anesthesia. Liver tissue was collected from each animal for DNA extraction and analysis. Blood was collected into serum separator tubes or into tubes containing buffered sodium citrate for plasma as described herein. Cohorts of mice were measured for editing by Next-Generation Sequencing (NGS).
Blood was collected and the serum was isolated as indicated. The total mouse TTR serum levels were determined using a Mouse Prealbumin (Transthyretin) ELISA Kit (Aviva Systems Biology, Cat. OKIA00111). Briefly, sera were serial diluted with kit sample diluent to a final dilution of 10,000-fold for 0.1 mg/kg dose and final dilutions of 10,000-fold and of 2,500-fold for 0.3 mg/kg. This diluted sample was then added to the ELISA plates and the assay was carried out according to the manufacturer's directions.

[3] = sg:mRNA 1:1.3, N/P about 6, amine lipid/DSPC/cholesterol/PEG-2k-DMG 50/9/38/3, Table 2, Experiment 1
[4] = sg:mRNA 1:1.3, N/P about 6, 50/9/38/3, Table 2, Experiment 1
[5] = sg:mRNA 1:1, N/P about 6, amine lipid/DSPC/cholesterol/PEG-2k-DMG 50/9/38/3, Table 2, Experiments 2-20
[6] = sg:mRNA 1:1, N/P about 6, 50/9/38/3, Table 2, Experiments 2-20

| Structure (SMILES) | Encapsulation (%) [1, 3] [%] | Number mean (nm) [2, 4] [nm] | PDI [2, 4] | Z-avg (nm) [2, 4] [nm] | Encapsulation (%) [1, 5] [%] | Number mean (nm) [2, 6] [nm] | PDI [2, 6] | Z-avg (nm) [2, 6] [nm] | Serum TTR % TSS (Transthyretin (TTR)) [%] | Serum TTR (Transthyretin (TTR)) [µg/mL] |
| --- | --- | --- | --- | --- | --- | --- | --- | --- | --- | --- |
| CCCCC/C=C\C/C=C\CCCCCCCC(=O)OCC(COC(=O)CCC(OCCCCCCCC)OCCCCCCCC)COC(=O)OCCCN(C)CCN(C)C (stereo not drawn) [Compound 4, 13-(((4,4-bis(octyloxy)butanoyl)oxy)methyl)-2,5-dimethyl-10-oxo-9,11-dioxa-2,5-diazatetradecan-14-yl (9Z,12Z)-octadeca-9,12-dienoate] | 100 | 44.92 | 0.129 | 72.11 | – | – | – | – | 109 | 1347 |
| CCCCC/C=C\C/C=C\CCCCCCCC(=O)OCC(COC(=O)CCC(OCCCCCCCC)OCCCCCCCC)COC(=O)NCCCN(C)C (stereo not drawn) [Compound 6, 3-((4,4-bis(octyloxy)butanoyl)oxy)-2-((((3-(dimethylamino)propyl)carbamoyl)oxy)methyl)propyl (9Z,12Z)-octadeca-9,12-dienoate] | 100 | 41.82 | 0.066 | 56.86 | – | – | – | – | 90 | 1107 |
| CCCCC/C=C\C/C=C\CCCCCCCC(=O)OCC(COC(=O)CCC(OCCCCCCCC)OCCCCCCCC)COC(=O)NCCCN(CC)CC (stereo not drawn) [Compound 7, 3-((4,4-bis(octyloxy)butanoyl)oxy)-2-((((3-(diethylamino)propyl)carbamoyl)oxy)methyl)propyl (9Z,12Z)-octadeca-9,12-dienoate] | – | – | – | – | 99 | 43.91 | 0.126 | 67.61 | 104 | 940 |
| CCCCC/C=C\C/C=C\CCCCCCCC(=O)OCC(COC(=O)CCC(OCCCCCCCC)OCCCCCCCC)COC(=O)NCCCN1CCCC1 (stereo not drawn) [Compound 8, 3-((4,4-bis(octyloxy)butanoyl)oxy)-2-((((3-(pyrrolidin-1-yl)propyl)carbamoyl)oxy)methyl)propyl (9Z,12Z)-octadeca-9,12-dienoate] | – | – | – | – | 100 | 37.17 | 0.093 | 53.88 | 106 | 962 |
| CCCCC/C=C\C/C=C\CCCCCCCC(=O)OCC(COC(=O)CCC(OCCCCCCCC)OCCCCCCCC)COC(=O)OCCN(CC)CC (stereo not drawn) [Compound 9, 3-((4,4-bis(octyloxy)butanoyl)oxy)-2-((((2-(diethylamino)ethoxy)carbonyl)oxy)methyl)propyl (9Z,12Z)-octadeca-9,12-dienoate] | – | – | – | – | 89 | 45.11 | 0.058 | 62.99 | 100 | 865 |
| CCCCC/C=C\C/C=C\CCCCCCCC(=O)OCC(COC(=O)CCC(OCCCCCCCC)OCCCCCCCC)COC(=O)OCCCCN(CC)CC (stereo not drawn) [Compound 11, 3-((4,4-bis(octyloxy)butanoyl)oxy)-2-((((4-(diethylamino)butoxy)carbonyl)oxy)methyl)propyl (9Z,12Z)-octadeca-9,12-dienoate] | – | – | – | – | 97 | 68.35 | 0.022 | 85.35 | 78 | 706 |
| CCCCC/C=C\C/C=C\CCCCCCCC(=O)OCC(COC(=O)CCC(OCCCCCCCC)OCCCCCCCC)COC(=O)OCCCCN1CCCC1 (stereo not drawn) [Compound 13, 3-((4,4-bis(octyloxy)butanoyl)oxy)-2-((((4-(pyrrolidin-1-yl)butoxy)carbonyl)oxy)methyl)propyl (9Z,12Z)-octadeca-9,12-dienoate] | – | – | – | – | 97 | 74.6 | 0.013 | 91.12 | 93 | 837 |

Further lines, with some results ahead:

| Encapsulation (%) [1, 3] [%] | Number mean (nm) [2, 4] [nm] | PDI [2, 4] | Z-avg (nm) [2, 4] [nm] | Encapsulation (%) [1, 5] [%] | Number mean (nm) [2, 6] [nm] | PDI [2, 6] | Z-avg (nm) [2, 6] [nm] | Structure (SMILES) | Serum TTR % TSS (Transthyretin (TTR)) [%] | Serum TTR (Transthyretin (TTR)) [µg/mL] |
| --- | --- | --- | --- | --- | --- | --- | --- | --- | --- | --- |
| 96 | 59.17 | 0.046 | 75.64 | – | – | – | – | CCCCC/C=C\C/C=C\CCCCCCCC(=O)OCC(COC(=O)CCC(OCCCCCCCC)OCCCCCCCC)COC(=O)OCCCN(C)C (stereo not drawn) [Compound 2, 3-((4,4-bis(octyloxy)butanoyl)oxy)-2-((((3-(dimethylamino)propoxy)carbonyl)oxy)methyl)propyl (9Z,12Z)-octadeca-9,12-dienoate] | 90 | 1114 |
| 91 | 61.67 | 0.079 | 86.16 | – | – | – | – | CCCCC/C=C\C/C=C\CCCCCCCC(=O)OCC(COC(=O)CCC(OCCCCCCCC)OCCCCCCCC)COC(=O)OCCCN1CCCC1 (stereo not drawn) [Compound 3, 3-((4,4-bis(octyloxy)butanoyl)oxy)-2-((((3-(pyrrolidin-1-yl)propoxy)carbonyl)oxy)methyl)propyl (9Z,12Z)-octadeca-9,12-dienoate] | 105 | 1297 |
| 98 | 50.89 | 0.059 | 66.28 | – | – | – | – | CCCCC/C=C\C/C=C\CCCCCCCC(=O)OCC(COC(=O)CCC(OCCCCCCCC)OCCCCCCCC)COC(=O)OCC1CCCN(CC)C1 (stereo not drawn) [Compound 5, 3-((4,4-bis(octyloxy)butanoyl)oxy)-2-(((((1-ethylpiperidin-3-yl)methoxy)carbonyl)oxy)methyl)propyl (9Z,12Z)-octadeca-9,12-dienoate] | 60 | 737 |
| – | – | – | – | 90 | 39.12 | 0.086 | 57.21 | CCCCC/C=C\C/C=C\CCCCCCCC(=O)OCC(COC(=O)CCC(OCCCCCCCC)OCCCCCCCC)COC(=O)OCCN1CCCC1 (stereo not drawn) [Compound 10, 3-((4,4-bis(octyloxy)butanoyl)oxy)-2-((((2-(pyrrolidin-1-yl)ethoxy)carbonyl)oxy)methyl)propyl (9Z,12Z)-octadeca-9,12-dienoate] | 96 | 871 |
| – | – | – | – | 93 | 45.18 | 0.091 | 64.69 | CCCCC/C=C\C/C=C\CCCCCCCC(=O)OCC(COC(=O)CCC(OCCCCCCCC)OCCCCCCCC)COC(=O)OCC1CCCN1C (stereo not drawn) [Compound 14, 3-((4,4-bis(octyloxy)butanoyl)oxy)-2-(((((1-methylpyrrolidin-2-yl)methoxy)carbonyl)oxy)methyl)propyl (9Z,12Z)-octadeca-9,12-dienoate] | 88 | 908 |
| – | – | – | – | 98 | 56.58 | 0.037 | 70.97 | CCCCC/C=C\C/C=C\CCCCCCCC(=O)OCC(COC(=O)CCC(OCCCCCCCC)OCCCCCCCC)COC(=O)OC1CCN(CC)CC1 (stereo not drawn) [Compound 17, 3-((4,4-bis(octyloxy)butanoyl)oxy)-2-(((((1-ethylpiperidin-4-yl)oxy)carbonyl)oxy)methyl)propyl (9Z,12Z)-octadeca-9,12-dienoate] | 70 | 727 |
